IC50 data for 34 compounds are collected here from patent US10487068B2, “Pyridazine derivatives as RORc modulators” (Genentech, Inc., priority 2015, dated 2019).

In this test the target is T1, RORc ligand binding domain (Homo sapiens, UniProt P51449).
T1 sequence (P51449 269-508 limits assumed): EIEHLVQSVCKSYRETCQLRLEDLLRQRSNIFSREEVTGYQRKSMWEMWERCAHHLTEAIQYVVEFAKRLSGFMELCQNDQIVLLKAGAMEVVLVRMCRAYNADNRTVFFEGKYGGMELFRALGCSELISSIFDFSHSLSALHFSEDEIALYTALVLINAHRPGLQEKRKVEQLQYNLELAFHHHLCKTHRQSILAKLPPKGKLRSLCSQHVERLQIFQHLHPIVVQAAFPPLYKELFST
In words: In Vitro RORc Ligand Binding Assay. Particulars: RORc IC50, radioligand 25-[3H]hydroxycholesterol 6 nM; 0.6 ug/mL RORc receptor; 3 h at 25° C.

What is called IC50 is the point on the concentration scale where inhibition reaches its midpoint. For `CC(C)(O)c1nc(-c2cncc([C@@]34CC[C@@H](c5cc(-c6c(F)cccc6F)nnc53)C4(C)C)n2)no1` [Example 256, 2-(3-(6-((5R,8S)-3-(2,6-difluorophenyl)-9,9-dimethyl-5,6,7,8-tetrahydro-5,8-methanocinnolin-8-yl)pyrazin-2-yl)-1,2,4-oxadiazol-5-yl)propan-2-ol], the IC50 was determined as 10.1 nM.
Regarding `CC1(C)[C@H]2CC[C@]1(c1ccnc(-n3cc(CCO)cn3)n1)c1nnc(-c3c(F)cccc3F)cc12` [Example 215], the IC50 stood at 28.1 nM.
With `CC(C)(O)c1nc(-c2cncc([C@@]34CC[C@@H](c5cc(-c6c(F)cccc6F)nnc53)C4(C)C)n2)oc1Br` [Example 426, 2-(5-bromo-2-(6-((5R,8S)-3-(2,6-difluorophenyl)-9,9-dimethyl-5,6,7,8-tetrahydro-5,8-methanocinnolin-8-yl)pyrazin-2-yl)oxazol-4-yl)propan-2-ol], the IC50 came out at 12.1 nM.
`CC1(C)[C@H]2CC[C@]1(c1ccnc(OCCO)n1)c1nnc(-c3c(F)cccc3F)cc12` [Example 333]: the IC50 is 4.8 nM.
As for `CC1(C)[C@H]2CC[C@]1(c1cncc(C3(O)COC3)n1)c1nnc(-c3c(F)cccc3F)cc12` [Example 398, 3-(6-((5R,8S)-3-(2,6-difluorophenyl)-9,9-dimethyl-5,6,7,8-tetrahydro-5,8-methanocinnolin-8-yl)pyrazin-2-yl)oxetan-3-ol], the IC50 was 12.5 nM.
`CC1(C)[C@H]2CC[C@]1(c1cncc(-c3nnn[nH]3)n1)c1nnc(-c3c(F)cccc3F)cc12` [Example 146] gave an IC50 of 31.9 nM.
Compound `CC1(C)[C@H]2CC[C@]1(c1cccc(C(=O)N3CCS(=O)(=O)CC3)n1)c1nnc(-c3c(F)cccc3F)cc12` [Example 57, (6-((5R,8S)-3-(2,6-difluorophenyl)-9,9-dimethyl-5,6,7,8-tetrahydro-5,8-methanocinnolin-8-yl)pyridin-2-yl)(1,1-dioxidothiomorpholino)methanone] came in with an IC50 of 71.1 nM.
For the compound `C[C@@H](O)C(=O)Nc1ccc(-c2nccc([C@@]34CC[C@@H](c5cc(-c6c(F)cccc6F)nnc53)C4(C)C)n2)cn1` [Example 418], the IC50 worked out at 10.5 nM.
Next, `C[C@H](O)c1nnc(-c2ncc(F)c([C@@]34CC[C@@H](c5cc(-c6c(F)cccc6F)nnc53)C4(C)C)n2)[nH]1` [Example 257]: 22.6 nM; `CC1(C)[C@H]2CC[C@]1(c1cccc(-n3cnnc3)n1)c1nnc(-c3c(F)cccc3F)cc12` [Example 216]: 12.7 nM; `CC1(C)[C@H]2CC[C@]1(c1cccc(NS(=O)(=O)C3COC3)n1)c1nnc(-c3c(F)cccc3F)cc12` [Example 164, N-(6-((5R,8S)-3-(2,6-difluorophenyl)-9,9-dimethyl-5,6,7,8-tetrahydro-5,8-methanocinnolin-8-yl)pyridin-2-yl)oxetane-3-sulfonamide]: 32.4 nM.
`CNS(=O)(=O)c1nccc([C@@]23CC[C@@H](c4cc(-c5c(F)cccc5F)nnc42)C3(C)C)n1` [Example 183] registered an IC50 of 15.6 nM.
Compound `CC1(C)[C@H]2CC[C@]1(c1ccnc(N)n1)c1nnc(-c3c(F)cccc3F)cc12` [Example 23] had an IC50 of 21.9 nM.
`CC1(C)[C@H]2CC[C@]1(c1ccnc(-n3ccc(=O)[nH]3)n1)c1nnc(-c3c(F)cccc3F)cc12` [Example 303] gave a half-inhibitory concentration (IC50) of 15 nM.
As for `C[C@H](O)c1nnc(-c2cccc([C@@]34CC[C@@H](c5cc(-c6c(F)cccc6F)nnc53)C4(C)C)n2)[nH]1` [Example 222, (S)-1-(5-(6-((5R,8S)-3-(2,6-difluorophenyl)-9,9-dimethyl-5,6,7,8-tetrahydro-5,8-methanocinnolin-8-yl)pyridin-2-yl)-4H-1,2,4-triazol-3-yl)ethanol], the IC50 stood at 11 nM.
In turn, `CC1(C)[C@H]2CC[C@]1(c1cccc(N3CCN(CCO)C3=O)n1)c1nnc(-c3c(F)cccc3F)cc12` [Example 158, 1-(6-((5R,8S)-3-(2,6-difluorophenyl)-9,9-dimethyl-5,6,7,8-tetrahydro-5,8-methanocinnolin-8-yl)pyridin-2-yl)-3-(2-hydroxyethyl)imidazolidin-2-one] displayed an IC50 of 26.1 nM.
As to `CC1(C)[C@H]2CC[C@]1(c1cccc(C(=O)NCC3(O)COC3)n1)c1nnc(-c3c(F)cccc3F)cc12` [Example 131, 6-((5R,8S)-3-(2,6-difluorophenyl)-9,9-dimethyl-5,6,7,8-tetrahydro-5,8-methanocinnolin-8-yl)-N-((3-hydroxyoxetan-3-yl)methyl)picolinamide], the IC50 amounted to 44.4 nM.
In turn, `CC1(C)[C@H]2CC[C@]1(c1cncc(-c3ccc(OCCO)nc3)n1)c1nnc(-c3c(F)cccc3F)cc12` [Example 420, 2-((5-(6-((5R,8S)-3-(2,6-difluorophenyl)-9,9-dimethyl-5,6,7,8-tetrahydro-5,8-methanocinnolin-8-yl)pyrazin-2-yl)pyridin-2-yl)oxy)ethanol] yielded an IC50 of 9.2 nM.
For `C[C@H](O)c1nnc(-c2nccc([C@@]34CC[C@@H](c5cc(-c6c(F)cccc6F)nnc53)C4(C)C)n2)[nH]1` [Example 263], the half-inhibitory concentration (IC50) turned out to be 20.8 nM.
Turning to `CC(C)(O)c1ccc(-c2nccc([C@@]34CC[C@@H](c5cc(-c6c(F)cccc6F)nnc53)C4(C)C)n2)cn1` [Example 370], the IC50 worked out at 4.4 nM.
Take `C[C@H](O)c1coc(-c2cncc([C@@]34CC[C@@H](c5cc(-c6c(F)cccc6F)nnc53)C4(C)C)n2)n1` [Example 378, (S)-1-(2-(6-((5R,8S)-3-(2,6-difluorophenyl)-9,9-dimethyl-5,6,7,8-tetrahydro-5,8-methanocinnolin-8-yl)pyrazin-2-yl)oxazol-4-yl)ethanol]: the IC50 was 6.8 nM.
As to `CC1(C)[C@H]2CC[C@]1(c1ccnc(C(=O)NCCO)n1)c1nnc(-c3c(F)cccc3Cl)cc12` [Example 161], the half-maximal inhibitory concentration (IC50) is 44 nM.
Compound `CC1(C)[C@H]2CC[C@]1(c1ccnc(NS(C)(=O)=O)n1)c1nnc(-c3c(F)cccc3F)cc12` [Example 111] returned an IC50 of 41.4 nM.
To `CC(C)(O)c1ncc(-c2cncc([C@@]34CC[C@@H](c5cc(-c6c(F)cccc6F)nnc53)C4(C)C)n2)o1` [Example 347, 2-(5-(6-((5R,8S)-3-(2,6-difluorophenyl)-9,9-dimethyl-5,6,7,8-tetrahydro-5,8-methanocinnolin-8-yl)pyrazin-2-yl)oxazol-2-yl)propan-2-ol] belongs 6.8 nM; to `CC1(C)[C@H]2CC[C@]1(c1ccnc(-c3cccnc3)n1)c1nnc(-c3c(F)cccc3F)cc12` [Example 254], 4.4 nM; to `C[C@@H](O)c1nnc(-c2cccc([C@@]34CC[C@@H](c5cc(-c6c(F)cccc6F)nnc53)C4(C)C)n2)[nH]1` [Example 221, (R)-1-(5-(6-((5R,8S)-3-(2,6-difluorophenyl)-9,9-dimethyl-5,6,7,8-tetrahydro-5,8-methanocinnolin-8-yl)pyridin-2-yl)-4H-1,2,4-triazol-3-yl)ethanol], 23.3 nM.
For `Cc1ncn(-c2cccc([C@@]34CC[C@@H](c5cc(-c6c(F)cccc6F)nnc53)C4(C)C)n2)n1` [Example 270], the IC50 was determined as 1.9 nM.
In turn, `CC1(C)[C@H]2CC[C@]1(c1cncc(-n3ccncc3=O)n1)c1nnc(-c3c(F)cccc3F)cc12` [Example 421, 6′-((5R,8S)-3-(2,6-difluorophenyl)-9,9-dimethyl-5,6,7,8-tetrahydro-5,8-methanocinnolin-8-yl)-2H-[1,2′-bipyrazin]-2-one] had an IC50 of 39.5 nM.
`CC1(C)[C@H]2CC[C@]1(c1cncc(-c3n[nH]c(=O)[nH]3)n1)c1nnc(-c3c(F)cccc3F)cc12` [Example 123, 3-(6-((5R,8S)-3-(2,6-difluorophenyl)-9,9-dimethyl-5,6,7,8-tetrahydro-5,8-methanocinnolin-8-yl)pyrazin-2-yl)-1H-1,2,4-triazol-5(4H)-one] gave a half-inhibitory concentration (IC50) of 32.5 nM.
Regarding `CC1(C)[C@H]2CC[C@]1(c1cc(=O)cc[nH]1)c1nnc(-c3c(F)cccc3F)cc12` [Example 24, 2-((5R,8S)-3-(2,6-difluorophenyl)-9,9-dimethyl-5,6,7,8-tetrahydro-5,8-methanocinnolin-8-yl)pyridin-4(1H)-one], the IC50 stood at 1940 nM.
Turning to `CC1(C)[C@H]2CC[C@]1(c1cncc(C3=NNC(=O)CN3)n1)c1nnc(-c3c(F)cccc3F)cc12` [Example 296, 3-(6-((5R,8S)-3-(2,6-difluorophenyl)-9,9-dimethyl-5,6,7,8-tetrahydro-5,8-methanocinnolin-8-yl)pyrazin-2-yl)-4,5-dihydro-1,2,4-triazin-6(1H)-one], the IC50 amounted to 20.9 nM.
The compound `CC1(C)[C@H]2CC[C@]1(c1cccc(-c3nc([C@@H](O)C(F)(F)F)n[nH]3)n1)c1nnc(-c3c(F)cccc3F)cc12` [Example 339, (R)-1-(5-(6-((5R,8S)-3-(2,6-difluorophenyl)-9,9-dimethyl-5,6,7,8-tetrahydro-5,8-methanocinnolin-8-yl)pyridin-2-yl)-1H-1,2,4-triazol-3-yl)-2,2,2-trifluoroethanol] came in with an IC50 of 5.6 nM.
To `CC1(C)[C@H]2CC[C@]1(c1cccc(-c3nc(C4(O)COC4)n[nH]3)n1)c1nnc(-c3c(F)cccc3F)cc12` [Example 320, 3-(5-(6-((5R,8S)-3-(2,6-difluorophenyl)-9,9-dimethyl-5,6,7,8-tetrahydro-5,8-methanocinnolin-8-yl)pyridin-2-yl)-1H-1,2,4-triazol-3-yl)oxetan-3-ol] belongs 9 nM.
The compound `C[C@@H](O)Cc1n[nH]c(-c2cncc([C@@]34CC[C@@H](c5cc(-c6c(F)cccc6F)nnc53)C4(C)C)n2)n1` [Example 279, (R)-1-(5-(6-((5R,8S)-3-(2,6-difluorophenyl)-9,9-dimethyl-5,6,7,8-tetrahydro-5,8-methanocinnolin-8-yl)pyrazin-2-yl)-1H-1,2,4-triazol-3-yl)propan-2-ol] gave an IC50 of 12.6 nM.
